In one test the target is KRAS G12S (Homo sapiens (Human), UniProt P01116+P62937, G12S). Nature of the test: Ras-Raf (BRAF RBD) disruption / FRET / MOA assay, KRAS G12S. In kind it is biochemical. Particulars: Ras-Raf disruption/FRET/MOA assay; class symbols; read-out: KRAS G12S FRET data IC50. The procedure, abridged: (§1)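 Ternary complex formation (Ras–compound–cyclophilin A) displacing BRAF RBD, monitored by TR-FRET. Three hours at 25° C with compound (top 30 μM final), then 1.5 h with the labelled antibodies. Lower ratio than DMSO indicates disruption; IC50 reported.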
Sequence of KRAS G12S (P01116-2 other isoform, or with tags, fused parts or gaps G12S): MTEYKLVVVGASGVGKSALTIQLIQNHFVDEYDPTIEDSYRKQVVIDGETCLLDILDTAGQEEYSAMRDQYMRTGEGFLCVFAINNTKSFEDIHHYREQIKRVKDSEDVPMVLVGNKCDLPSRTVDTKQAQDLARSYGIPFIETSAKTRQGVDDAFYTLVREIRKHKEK
Sequence of KRAS G12S (P62937 whole entry): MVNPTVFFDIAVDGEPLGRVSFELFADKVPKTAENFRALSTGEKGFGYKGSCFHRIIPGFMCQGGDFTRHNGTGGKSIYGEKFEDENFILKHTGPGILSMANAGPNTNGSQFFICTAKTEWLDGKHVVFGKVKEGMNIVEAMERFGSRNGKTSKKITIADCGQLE

The target of a further test is KRAS G12D (Homo sapiens (Human), UniProt P01116+P62937, G12D). Put plainly: Ras-Raf (BRAF RBD) disruption / FRET / MOA assay, KRAS G12D. The test is classed as biochemical. Particulars: Ras-Raf disruption/FRET/MOA assay; class symbols; read-out: KRAS G12D FRET data IC50. The procedure, abridged:
as §1

In test [1] the test system is NCI-H358 cells (K-Ras G12C). Put plainly: Potency assay: pERK in NCI-H358 cells. Particulars: Homo sapiens, NCI-H358; H358 KRAS G12C; read-out: pERK EC50. In kind it is cell-based, human. The procedure, abridged:
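4 h cpd, 37 °C; 10-pt 3-fold series, 10 mM DMSO top stock, duplicates. Readout pERK: AlphaLISA SureFire Ultra or In-Cell Western (IR-800CW secondary, DRAQ5 DNA stain). IC50, 4-PL fit vs log conc.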

In a further test the target is NRAS Q61K (Homo sapiens (Human), UniProt P01111+P62937, Q61K). Put plainly: Ras-Raf (BRAF RBD) disruption / FRET / MOA assay, NRAS Q61K. The test is classed as biochemical. As to conditions: NRAS Q61K; Ras-Raf disruption/FRET/MOA assay; read-out: IC50* NRAS Q61K FRET data. The procedure, abridged: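 Compounds were tested as a 10-point 3-fold dilution series from 30 μM final for their ability to drive ternary complex formation between nucleotide-loaded Ras and cyclophilin A, displacing the BRAF RBD. After 3 h at 25° C., anti-His Eu-W1024 (10 nM) and anti-GST allophycocyanin (50 nM) were added for 1.5 h. A TR-FRET ratio decrease versus DMSO gave IC50.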
Sequence of NRAS Q61K (P01111 whole entry Q61K): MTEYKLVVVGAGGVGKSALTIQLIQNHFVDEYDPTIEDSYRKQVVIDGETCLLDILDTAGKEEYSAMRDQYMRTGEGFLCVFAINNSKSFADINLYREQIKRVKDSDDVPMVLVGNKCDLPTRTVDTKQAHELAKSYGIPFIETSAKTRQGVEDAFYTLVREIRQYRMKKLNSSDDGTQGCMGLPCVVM
Sequence of NRAS Q61K (P62937 whole entry): as the sequence (P62937 whole entry) above

As a reminder, the IC50 is the concentration that inhibits the measured activity by half. The EC50 is the concentration that produces a half-maximal response.

Sequence of KRAS G12D (P01116-2 other isoform, or with tags, fused parts or gaps G12D): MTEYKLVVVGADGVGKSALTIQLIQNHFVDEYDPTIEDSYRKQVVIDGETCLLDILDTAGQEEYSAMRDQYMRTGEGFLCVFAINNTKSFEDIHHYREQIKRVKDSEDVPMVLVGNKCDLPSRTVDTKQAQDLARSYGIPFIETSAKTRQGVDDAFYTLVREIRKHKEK
Sequence of KRAS G12D (P62937 whole entry): as the sequence (P62937 whole entry) above

On to `CCn1c(-c2cccnc2[C@H](C)OC)c2c3cc(ccc31)-c1cnc(o1)C[C@H](NC(=O)[C@H](C(C)C)N(C)C(=O)[C@H]1CCN(C(=O)C#CC(C)(C)N(C)C)C1)C(=O)N1CCC[C@H](N1)C(=O)OCC(C)(C)C2` (atropisomer, axis not shown) [Example A692, (3S)-1-(4-(dimethylamino)-4-methylpent-2-ynoyl)-N-((2S)-1-(((6^3S,4S)-1^1-ethyl-1^2-(2-((S)-1-methoxyethyl)pyridin-3-yl)-10,10-dimethyl-5,7-dioxo-6^1,6^2,6^3,6^4,6^5,6^6-hexahydro-1^1H-8-oxa-2(5,2)-oxazola-1(5,3)-indola-6(1,3)-pyridazinacycloundecaphane-4-yl)amino)-3-methyl-1-oxobutan-2-yl)-N-methylpyrrolidine-3-carboxamide], for which the IC50 was 1000 to 10000 nM at KRAS G12S, over 10000 nM at KRAS G12D and over 10000 nM at NRAS Q61K. Also, in test [1], the EC50 is under 5 µM.

With `C=CC(=O)N1CCOC2(CCN(C(=O)N(C)[C@H](C(=O)N[C@H]3Cc4nc(cs4)-c4ccc5c(c4)c(c(-c4cccnc4[C@H](C)OC)n5CC)CC(C)(C)COC(=O)[C@@H]4CCCN(N4)C3=O)C(C)C)CC2)C1` (atropisomer, axis not shown) [Example A695], the figures for the IC50 on KRAS G12S, on KRAS G12D and at NRAS Q61K were 100 to 1000 nM, 1000 to 10000 nM and 100 to 1000 nM, respectively. For the same molecule, in test [1], the EC50 is under 5 µM.

Consider `C=CC(=O)N1CCC2(CC1)CCN(C(=O)N(C)[C@H](C(=O)N[C@H]1Cc3nc(cs3)-c3ccc4c(c3)c(c(-c3cccnc3[C@H](C)OC)n4CC)CC(C)(C)COC(=O)[C@@H]3CCCN(N3)C1=O)C(C)C)CC2` (atropisomer, axis not shown) [Example A697], for which the values for the IC50 on KRAS G12S, on KRAS G12D and at NRAS Q61K were 100 to 1000 nM, 100 to 1000 nM and 10 to 100 nM, respectively. In addition, in test [1], the EC50 was under 5 µM.

As for `C=CC(=O)N1CCC(F)(C(=O)N(C)[C@H](C(=O)N[C@H]2Cc3nc(cs3)-c3ccc4c(c3)c(c(-c3cccnc3[C@H](C)OC)n4CC)CC(C)(C)COC(=O)[C@@H]3CCCN(N3)C2=O)C(C)C)CC1` (atropisomer, axis not shown) [Example A700], the IC50 at KRAS G12S, at KRAS G12D and at NRAS Q61K was 100 to 1000 nM in each case. The concentration for a half-maximal effect (EC50) in test [1] is under 5 µM.

Regarding `C=CC(=O)N1CCO[C@H]2CN(C(=O)N(C)[C@H](C(=O)N[C@H]3Cc4nc(cs4)-c4ccc5c(c4)c(c(-c4cccnc4[C@H](C)OC)n5CC)CC(C)(C)COC(=O)[C@@H]4CCCN(N4)C3=O)C(C)C)C[C@H]21` (atropisomer, axis not shown) [Example A706], the IC50 was 1000 to 10000 nM at KRAS G12S, over 10000 nM on KRAS G12D and 100 to 1000 nM on NRAS Q61K. In addition, the EC50 in test [1] is under 5 µM.

As to `CO[C@@H](C)c1ncccc1-c1c2c3cc(ccc3n1CC(F)(F)F)-c1cnc(o1)C[C@H](NC(=O)[C@H](C(C)C)N(C)C(=O)[C@H]1CCN(C(=O)C#CC(C)(C)N(C)C)C1)C(=O)N1CCC[C@H](N1)C(=O)OCC(C)(C)C2` (atropisomer, axis not shown) [Example A707], the IC50 was 1000 to 10000 nM on KRAS G12S, 1000 to 10000 nM on KRAS G12D and over 10000 nM at NRAS Q61K. The EC50 in test [1] was under 5 µM.

In the case of `CO[C@@H](C)c1ncccc1-c1c2c3nc(ccc3n1CC(F)(F)F)-c1cccc(c1)C[C@H](NC(=O)[C@@H](COC1CN(C(=O)C#CC(C)(C)N(C)C)C1)C(C)C)C(=O)N1CCC[C@H](N1)C(=O)OCC(C)(C)C2` (atropisomer, axis not shown) [Example A724], the IC50 on KRAS G12S, on KRAS G12D and on NRAS Q61K was over 10000 nM throughout. Besides, the EC50 in test [1] was under 5 µM.

For the molecule `CCn1c(-c2cccnc2[C@H](C)OC)c2c3cc(ccc31)-c1cccc(c1)C[C@H](NC(=O)[C@H](C(C)C)N1CO[C@@]3(CCN(C(=O)C#CC(C)(C)N4CCC4)C3)C1=O)C(=O)N1CCC[C@H](N1)C(=O)OCC(C)(C)C2` (atropisomer, axis not shown) [Example A733], the IC50 at KRAS G12S was 1000 to 10000 nM; at KRAS G12D, over 10000 nM; on NRAS Q61K, over 10000 nM. Besides, the EC50 in test [1] was under 5 µM.

For `C=CC(=O)N1CCN(C(=O)N(C)[C@H](C(=O)N[C@H]2Cc3nc(cs3)-c3ccc4c(c3)c(c(-c3cccnc3[C@H](C)OC)n4CC)CC(C)(C)COC(=O)[C@@H]3CCCN(N3)C2=O)C(C)C)[C@@H]2C[C@@H]21` (atropisomer, axis not shown) [Example A736], the IC50 at KRAS G12S was in the range of 10 to 100 nM; on KRAS G12D, 100 to 1000 nM; on NRAS Q61K, 10 to 100 nM. In addition, in test [1], the EC50 is under 5 µM.

On to `C=CC(=O)C1CC[C@H](C(=O)N(C)[C@H](C(=O)N[C@H]2Cc3cc(O)cc(c3)-c3ccc4c(c3)c(c(-c3cnn(C)c3[C@H](C)OC)n4CC)CC(C)(C)COC(=O)[C@@H]3CCCN(N3)C2=O)C(C)C)C1` (stereo partly shown) [Example A166], for which the results for the IC50 on KRAS G12S, on KRAS G12D and on NRAS Q61K were 100 to 1000 nM, 1000 to 10000 nM and 1000 to 10000 nM, respectively. The EC50 in test [1] was under 5 µM.

As to `C=CC(=O)N1CC[C@H](C(=O)N(C)[C@H](C(=O)N[C@H]2Cc3cc(O)cc(c3)-c3ccc4c(c3)c(c(-c3cncc5c3[C@@H](OC)CC5)n4CC)CC(C)(C)COC(=O)[C@@H]3CCCN(N3)C2=O)C(C)C)C1` [Example A275], the figures for the IC50 at KRAS G12S, on KRAS G12D and on NRAS Q61K were 10 to 100 nM, 100 to 1000 nM and 100 to 1000 nM, respectively. Further, the concentration giving a half-maximal response (EC50) in test [1] was under 5 µM.

For `C=CC(=O)N1CC[C@H](C(=O)N(C)[C@H](C(=O)N[C@H]2Cc3nc(ns3)-c3ccc4c(c3)c(c(-c3cncnc3)n4CC)CC(C)(C)COC(=O)[C@@H]3CCCN(N3)C2=O)C(C)C)C1` [Example A285], the half-inhibitory concentration (IC50) at KRAS G12S, at KRAS G12D and at NRAS Q61K was over 10000 nM in each case. In test [1], the EC50 is under 5 µM.

For the molecule `C=CC(=O)N1CC[C@H](C(=O)N(C)[C@H](C(=O)N[C@H]2Cc3cc(O)cc(c3)-c3ccc4c(c3)c(c(-c3cnn5c3[C@@H](OC)CCC5)n4CC)CC(C)(C)COC(=O)[C@@H]3CCCN(N3)C2=O)C(C)C)C1` [Example A300], the IC50 was 10 to 100 nM at KRAS G12S, 100 to 1000 nM at KRAS G12D and 100 to 1000 nM at NRAS Q61K. Also, the EC50 in test [1] is under 5 µM.

As for `CCn1c(-c2cccnc2[C@H](C)OC)c2c3cc(ccc31)-c1cccc(c1)C[C@H](NC(=O)C(COC1CN(C(=O)C#CC(C)(C)N(C)C)C1)C(C)C)C(=O)N1CCC[C@H](N1)C(=O)OCC(C)(C)C2` (stereo partly drawn) [Example A316, (2R)-2-(((1-(4-(dimethylamino)-4-methylpent-2-ynoyl)azetidin-3-yl)oxy)methyl)-N-((6^3S,4S)-1^1-ethyl-1^2-(2-((S)-1-methoxyethyl)pyridin-3-yl)-10,10-dimethyl-5,7-dioxo-6^1,6^2,6^3,6^4,6^5,6^6-hexahydro-1^1H-8-oxa-1(5,3)-indola-6(1,3)-pyridazina-2(1,3)-benzenacycloundecaphane-4-yl)-3-methylbutanamide], the IC50 at KRAS G12S, at KRAS G12D and at NRAS Q61K was over 10000 nM each time. Also, in test [1], the EC50 is under 5 µM.

On to `C=CC(=O)N1CCC(C(=O)N(C)[C@H](C(=O)N[C@H]2Cc3cc(CF)cc(c3)-c3ccc4c(c3)c(c(-c3cccnc3[C@H](C)OC)n4CC(F)(F)F)CC(C)(C)COC(=O)[C@@H]3CCCN(N3)C2=O)C(C)C)C1` (stereo partly shown) [Example A659], for which the figures for the IC50 on KRAS G12S, on KRAS G12D and on NRAS Q61K were 100 to 1000 nM, 1000 to 10000 nM and 1000 to 10000 nM, respectively. For the same molecule, the EC50 in test [1] was under 5 µM.

As for `CCn1c(-c2cccnc2[C@H](C)OC)c2c3cc(ccc31)N1CCO[C@@H](C[C@H](NC(=O)[C@H](C(C)C)N(C)C(=O)[C@@]3(F)CCC(C(=O)C#CC(C)(C)N4CCC4)C3)C(=O)N3CCC[C@H](N3)C(=O)OCC(C)(C)C2)C1` (stereo partly shown) [Example A726], the figures for the concentration for half-maximal inhibition (IC50) on KRAS G12S, on KRAS G12D and at NRAS Q61K were 1000 to 10000 nM, over 10000 nM and over 10000 nM, respectively. The EC50 in test [1] is under 5 µM.

These data come from patent US11566007B2, “Ras inhibitors” (Revolution Medicines, Inc., priority 2019, dated 2023).
